Structures are written as SMILES. Values after ≈ are worked out from the molar mass of the structure shown.

A short description of data set [1]: Oral PK in rats: plasma methylphenidate released from conjugates vs unconjugated methylphenidate (LC-MS/MS). The settings on record: oral gavage; for Tmax: Tmax (Methylphenidate). From the text: Exemplary prodrug conjugates of the present technology were synthesized as described above. The oral plasma concentrations of methylphenidate released from nicotinate-CH2OCO-MPH, phosphate-CH2OCO-MPH, gallate-CH2OCO-MPH, lactate-CH2OCO-MPH, MPH-CO2CH2-nicotinoyl-Asp, MPH-CO2CH2-nicotinoyl-Val, MPH-CO2CH2-nicotinoyl-Gly-Ala, Val-6-aminohexanoate-CH2OCO-MPH, MPH-CO2CH2-nicotinamide, 6-aminohexanoate-CH2OCO-MPH, MPH-CO2CH2-nicotinoyl-O^tBu, MPH-CO2CH2-nicotinate, MPH-CO2CH2-nicotinoyl-OEL MPH-CO2CH2-pyridine, isonicotinate-CH2OCO-MPH and phosphate-(p-salicylate)-CH2OCO-MPH were compared with unconjugated methylphenidate after oral administration in rats. Rats were dosed with oral solutions of the conjugated prodrugs in an amount equivalent to 2 mg/kg of methylphenidate free base and compared to an equimolar solution of unconjugated methylphenidate hydrochloride.
The plasma concentrations of methylphenidate were measured by LC-MS/MS over time.
The dosing vehicles for the PK experiments are as follows: FIG. 13—10% Tween in water. FIGS. 14 and 15—water. FIG. 16—conjugate in 50% PEG-400 in water; control: water. FIG. 17—50% PEG-400 in water. FIG. 18—10% Tween in water. FIGS. 19-27—water. FIGS. 28 and 29—phosphate buffered saline (PBS). FIG. 30—10% Tween in water.

Data set [2] can be described thus: Water solubility at ambient temperature. Type of data set: physicochemical. As for the experimental part:
The water solubility of phosphate-CH2OCO-methylphenidate and unconjugated methylphenidate was determined at ambient temperature and the results are found in Table 5.

The conditions of data set [3]: water, at 32° C.; cited from earlier work.
Data set [4] in a line: Intranasal PK in rats: plasma methylphenidate released from conjugates vs unconjugated methylphenidate. Format: in vivo. The conditions noted are these: rat, inhaled or intranasal, unconjugated methylphenidate comparator, dosed intranasally. From the text:
(§1) FIGS. 14 and 15—water. […] FIG. 17—50% PEG-400 in water. FIG. 18—10% Tween in water. FIGS. 19-27—water. FIGS. 28 and 29—phosphate buffered saline (PBS). FIG. 30—10% Tween in water.

Data set [5] is described as follows: Intravenous PK in rats: plasma methylphenidate released from conjugates vs unconjugated methylphenidate. Type of data set: in vivo. The settings on record: rat, unconjugated methylphenidate comparator, dosed intravenously.
Text: as §1

The mark [6] stands for this setting: conjugate relative to unconjugated methylphenidate.
[7] abbreviates: plasma methylphenidate released from conjugate, equivalent to 2 mg/kg methylphenidate free base.
The mark [8] stands for this setting: read-out: AUC0-4 h (Methylphenidate).
[9] abbreviates: conjugate relative to methylphenidate hydrochloride from combined data of six studies.
The mark [10] stands for this setting: calculated from combined data of three studies (footnote a).

For the compound `COC(=O)C(c1ccccc1)C1CCCCN1C(=O)OCOC(=O)CCCCCN` (centres unmarked) [6-Aminohexanoate-CH2OCO-MPH, (6-aminohexanoyloxy)methyl methylphenidate-1-carboxylate], in data set [1] (setting [6]), the AUC-% is 82%, the Cmax-% is on record as 109% and the Tmax-% came out at 88%. Moreover, in data set [1] (setting [7]), the “AUC0-4 h (Conjugate)” value is 145.6 ng·h/mL, the “Cmax (Conjugate)” value is given as 173.5 ng/mL and the “Tmax (Conjugate)” value stood at 21 min.
Turning to `COC(=O)C(c1ccccc1)C1CCCCN1C(=O)OCOC(=O)C(C)O` (centres unmarked) [Lactate-CH2OCO-MPH, lactate-CH2OCO-MPH], in data set [1] (setting [6]), the AUC-% worked out at 73%, the Cmax-% is given as 75% and the Tmax-% is 120%. Further, in data set [1] (setting [7]), the “AUC0-4 h (Conjugate)” value was determined as 132.3 ng·h/mL, the “Cmax (Conjugate)” value is 122.5 ng/mL and the “Tmax (Conjugate)” value worked out at 18 min.
`COC(=O)C(c1ccccc1)C1CCCCN1` (centres unmarked) [Methylphenidate, methyl phenyl(piperidin-2-yl)acetate]: the solubility in data set [2] (water) stood at 169 mg/mL (≈ 724 mM). Moreover, in data set [3], the “Solubility data found in the literature” value is given as 191 mg/mL (≈ 819 mM). In addition, the Cmax was 2210 ng/mL in data set [4]; 114 ng/mL in data set [1] (rat, plasma, po, 2 mg/kg, Cmax (Methylphenidate), methylphenidate hydrochloride, combined data of six studies (footnotes a, b)); 296 ng/mL in data set [5]. The Tmax worked out at 6.96 min in data set [4]; 17 min in data set [1] (rat, plasma, po, 2 mg/kg, methylphenidate hydrochloride, combined data of six studies (footnotes a, b)); 15 min in data set [1] (rat, plasma, po, 2 mg/kg, unconjugated methylphenidate hydrochloride comparator of the same row, equimolar); 31 min in data set [5]. The AUC(0-t) was 1050 ng·h/mL in data set [4] (setting [8]); 106 ng·h/mL in data set [1] (rat, plasma, po, 2 mg/kg, AUC0-4 h (Methylphenidate), methylphenidate hydrochloride, combined data of six studies (footnotes a, b)); 320 ng·h/mL in data set [5] (setting [8]).
Consider `COC(=O)C(c1ccccc1)C1CCCCN1C(=O)OCOP(=O)(O)O` (centres unmarked) [Phosphate-CH2OCO-MPH, phosphate-CH2OCO-MPH], for which, in data set [2], the “Solubility in Water” value is recorded as 432 mg/mL. For the same compound, the “Water solubility relative to the unconjugated form” value in data set [2] (vs unconjugated methylphenidate hydrochloride) is reported as “about 2.5 times”. Moreover, in data set [1] (setting [9]), the AUC-% is listed as 146%, the Cmax-% turned out to be 140% and the Tmax-% is 88%. In addition, in data set [1] (setting [6]), the AUC-% was 185%, the Cmax-% came to 144% and the Tmax-% is listed as 100%. Moreover, in data set [1] (setting [10]), the “AUC0-4 h (Conjugate)” value was 154.5 ng·h/mL, the “Cmax (Conjugate)” value is given as 158.9 ng/mL and the “Tmax (Conjugate)” value is 15 min. In data set [1] (setting [7]), the “AUC0-4 h (Conjugate)” value worked out at 110.8 ng·h/mL, the “Cmax (Conjugate)” value came to 110.8 ng/mL and the “Tmax (Conjugate)” value is 15 min.
Regarding `COC(=O)C(c1ccccc1)C1CCCCN1C(=O)OCOC(=O)CCCCCNC(=O)C(N)C(C)C` (centres unmarked) [Val-6-aminohexanoate-CH2OCO-MPH], in data set [1] (setting [6]), the AUC-% turned out to be 58%, the Cmax-% was determined as 59% and the Tmax-% came to 83%. Besides, in data set [1] (setting [7]), the “AUC0-4 h (Conjugate)” value was 44.9 ng·h/mL, the “Cmax (Conjugate)” value is on record as 52.7 ng/mL and the “Tmax (Conjugate)” value amounted to 15 min.

The values are drawn from US10231960B2, “Methylphenidate-prodrugs, processes of making and using the same” (KemPharm, Inc., priority 2011, dated 2019).
